According to BigSolDB 2.1:

NC(=O)Nc1ccccc1
solubility (mole fraction)
Conditions	283.15 K	288.15 K	293.15 K	298.15 K	303.15 K	308.15 K	313.15 K	318.15 K	323.15 K
in 1,2-dichloroethane	0.000433	0.000528	0.000706	0.000952	0.0012	0.00151	0.002	0.00257	0.00315
in 1,4-dioxane	–	0.0128	0.0152	0.0183	0.022	0.0276	0.0348	0.0433	0.0525
in DMF	0.205	0.212	0.22	0.229	0.24	0.253	0.266	0.282	0.3
in DMSO	–	–	0.192	0.199	0.207	0.217	0.229	0.244	0.262
in NMP	0.0457	0.0517	0.0596	0.0686	0.0787	0.0898	0.101	0.115	0.13
in acetonitrile	0.00622	0.00731	0.00867	0.0106	0.0135	0.0177	0.0221	0.0264	0.0318
in ethanol	0.0236	0.0272	0.0322	0.0383	0.0459	0.0525	0.0612	0.072	0.082
in ethyl acetate	0.0147	0.0176	0.0209	0.0257	0.0309	0.0384	0.0461	0.0549	0.0643
in ethylene glycol	0.0338	0.039	0.0448	0.0517	0.0595	0.0681	0.0774	0.0882	0.101
in isopropanol	0.00903	0.0108	0.0132	0.0164	0.0198	0.0253	0.0321	0.0392	0.0472
in methanol	0.0265	0.0305	0.036	0.0421	0.0495	0.0578	0.0672	0.0774	0.0888
in n-propanol	0.02	0.0235	0.0281	0.0334	0.0394	0.0458	0.0539	0.0629	0.0723
in water	0.000409	0.000513	0.000649	0.000828	0.00102	0.00124	0.0015	0.0018	0.00208
